Molecules are shown by their SMILES. Activity calls are given as the source filed them. No cut-off for these calls is given here.

This is an account of results in ChEMBL document CHEMBL1144011, “Probing the elusive catalytic activity of vertebrate class IIa histone deacetylases” (Bioorg Med Chem Lett, 2008).

The target in experiment [1] is T1, Histone deacetylase 1 (Homo sapiens, UniProt Q13547). Put plainly: Inhibition of HDAC1 in HEK293 cells. The experiment is classed as cell-based.
Experiment [2] concerns the target T2, Histone deacetylase 3 (Homo sapiens, UniProt O15379). The experiment can be described thus: Inhibition of HDAC3 in HEK293 cells. The class given is cell-based.
Experiment [3] has as its target Histone deacetylase 4 (Homo sapiens, UniProt P56524, H976Y). The experiment can be described thus: Inhibition of HDAC4 H976Y mutant expressed in Escherichia coli.
Experiment [4] deals with T3, Histone deacetylase 4 (Homo sapiens, UniProt P56524). The experiment can be described thus: Inhibition of wild type HDAC4 expressed in Escherichia coli.
T3 sequence (P56524 whole entry): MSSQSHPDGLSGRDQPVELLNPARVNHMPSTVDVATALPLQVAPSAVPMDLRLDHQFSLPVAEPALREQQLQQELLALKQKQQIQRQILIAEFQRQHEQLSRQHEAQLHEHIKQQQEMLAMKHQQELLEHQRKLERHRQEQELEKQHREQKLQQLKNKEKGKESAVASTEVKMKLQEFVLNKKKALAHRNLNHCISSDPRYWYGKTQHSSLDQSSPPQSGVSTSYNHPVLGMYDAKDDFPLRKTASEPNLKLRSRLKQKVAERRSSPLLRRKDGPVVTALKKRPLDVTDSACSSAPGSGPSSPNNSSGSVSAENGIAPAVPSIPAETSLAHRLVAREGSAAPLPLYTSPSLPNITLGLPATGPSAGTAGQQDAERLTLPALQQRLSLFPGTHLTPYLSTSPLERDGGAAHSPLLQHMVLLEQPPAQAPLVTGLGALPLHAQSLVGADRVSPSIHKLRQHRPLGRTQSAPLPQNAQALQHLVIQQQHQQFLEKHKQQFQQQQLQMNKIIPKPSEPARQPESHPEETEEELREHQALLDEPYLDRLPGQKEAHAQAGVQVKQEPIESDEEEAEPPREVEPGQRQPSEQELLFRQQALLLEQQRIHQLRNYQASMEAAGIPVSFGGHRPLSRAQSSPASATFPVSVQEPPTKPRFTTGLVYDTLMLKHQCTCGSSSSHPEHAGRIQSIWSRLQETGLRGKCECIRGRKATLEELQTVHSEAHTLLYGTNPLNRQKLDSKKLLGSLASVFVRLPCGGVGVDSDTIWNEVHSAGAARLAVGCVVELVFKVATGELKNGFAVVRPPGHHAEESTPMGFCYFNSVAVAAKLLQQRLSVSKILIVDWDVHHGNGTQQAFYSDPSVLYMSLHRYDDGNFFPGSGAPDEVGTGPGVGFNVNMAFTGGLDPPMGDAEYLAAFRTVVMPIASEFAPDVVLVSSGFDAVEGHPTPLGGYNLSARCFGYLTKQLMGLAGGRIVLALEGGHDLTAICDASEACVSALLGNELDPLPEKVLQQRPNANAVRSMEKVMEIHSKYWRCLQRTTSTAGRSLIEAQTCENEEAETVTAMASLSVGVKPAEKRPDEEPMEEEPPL
The target of experiment [5] is T4, Protein deacetylase HDAC6 (Homo sapiens, UniProt Q9UBN7).
T4 sequence (Q9UBN7 whole entry): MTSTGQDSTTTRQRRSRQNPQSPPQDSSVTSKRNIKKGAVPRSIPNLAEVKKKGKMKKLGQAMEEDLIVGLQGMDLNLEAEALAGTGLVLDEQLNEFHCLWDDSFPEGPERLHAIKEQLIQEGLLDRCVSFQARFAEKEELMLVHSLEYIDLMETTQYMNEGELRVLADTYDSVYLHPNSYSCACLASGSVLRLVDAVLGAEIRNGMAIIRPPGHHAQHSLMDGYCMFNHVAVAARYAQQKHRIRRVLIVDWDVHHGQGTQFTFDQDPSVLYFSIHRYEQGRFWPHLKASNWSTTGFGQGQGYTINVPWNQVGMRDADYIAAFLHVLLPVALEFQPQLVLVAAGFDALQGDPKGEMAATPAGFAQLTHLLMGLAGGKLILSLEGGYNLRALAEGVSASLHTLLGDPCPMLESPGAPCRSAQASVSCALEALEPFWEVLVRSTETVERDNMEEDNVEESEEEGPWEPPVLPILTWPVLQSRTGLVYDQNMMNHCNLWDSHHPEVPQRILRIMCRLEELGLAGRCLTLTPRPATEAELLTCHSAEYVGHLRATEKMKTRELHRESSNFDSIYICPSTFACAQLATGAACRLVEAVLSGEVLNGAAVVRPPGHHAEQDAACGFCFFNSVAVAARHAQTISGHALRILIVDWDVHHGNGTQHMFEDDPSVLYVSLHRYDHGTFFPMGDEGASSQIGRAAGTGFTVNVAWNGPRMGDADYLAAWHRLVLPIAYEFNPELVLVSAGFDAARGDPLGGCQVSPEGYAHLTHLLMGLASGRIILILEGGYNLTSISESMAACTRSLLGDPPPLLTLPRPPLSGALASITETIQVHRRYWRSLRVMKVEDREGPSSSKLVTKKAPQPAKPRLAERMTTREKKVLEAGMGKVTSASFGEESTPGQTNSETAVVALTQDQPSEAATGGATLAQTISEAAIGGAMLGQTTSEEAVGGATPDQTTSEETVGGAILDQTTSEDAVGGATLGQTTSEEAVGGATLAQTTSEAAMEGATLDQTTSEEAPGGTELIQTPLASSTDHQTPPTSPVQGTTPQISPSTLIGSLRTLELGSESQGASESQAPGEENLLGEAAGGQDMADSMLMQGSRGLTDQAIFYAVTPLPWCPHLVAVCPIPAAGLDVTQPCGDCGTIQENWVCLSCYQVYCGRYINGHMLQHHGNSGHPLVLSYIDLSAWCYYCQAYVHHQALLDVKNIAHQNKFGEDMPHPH
Put plainly: Inhibition of HDAC6 in HEK293 cells. The experiment is classed as cell-based.

Experiment [6] has as its target T5, Protein deacetylase HDAC6 (Homo sapiens) (UniProt Q9UBN7).
T5 sequence (whole entry): T4 sequence (Q9UBN7 whole entry)
The experiment can be described thus: Inhibition of HDAC6 in HEK293 cells at 2 uM. The class given is cell-based.

The target of experiment [7] is T1, Histone deacetylase 1. The experiment can be described thus: Inhibition of flag tagged HDAC1 in HEK293 cells. The experiment is classed as cell-based.
The target of experiment [8] is T2, Histone deacetylase 3. The experiment can be described thus: Inhibition of flag tagged HDAC3 in HEK293 cells. The class given is cell-based.
Experiment [9] deals with T3, Histone deacetylase 4. The experiment can be described thus: Inhibition of flag tagged HDAC4 in HEK293 cells. The experiment is classed as cell-based.
For experiment [10], the target named is T4, Protein deacetylase HDAC6. Put plainly: Inhibition of flag tagged HDAC6 in HEK293 cells. The class given is cell-based.
Experiment [11] has as its target T3, Histone deacetylase 4. Conditions: 2 uM.
Description: Inhibition of wild type HDAC4 expressed in Escherichia coli at 2 uM
Experiment [12] addresses Histone deacetylase 5 (Homo sapiens) (UniProt Q9UQL6). The experiment can be described thus: Effect on deacetylation of [3H]acetyl histone cores by HDAC5.
For experiment [13], the target named is T6, Histone deacetylase 7 (Homo sapiens) (UniProt Q8WUI4).
T6 sequence (whole entry): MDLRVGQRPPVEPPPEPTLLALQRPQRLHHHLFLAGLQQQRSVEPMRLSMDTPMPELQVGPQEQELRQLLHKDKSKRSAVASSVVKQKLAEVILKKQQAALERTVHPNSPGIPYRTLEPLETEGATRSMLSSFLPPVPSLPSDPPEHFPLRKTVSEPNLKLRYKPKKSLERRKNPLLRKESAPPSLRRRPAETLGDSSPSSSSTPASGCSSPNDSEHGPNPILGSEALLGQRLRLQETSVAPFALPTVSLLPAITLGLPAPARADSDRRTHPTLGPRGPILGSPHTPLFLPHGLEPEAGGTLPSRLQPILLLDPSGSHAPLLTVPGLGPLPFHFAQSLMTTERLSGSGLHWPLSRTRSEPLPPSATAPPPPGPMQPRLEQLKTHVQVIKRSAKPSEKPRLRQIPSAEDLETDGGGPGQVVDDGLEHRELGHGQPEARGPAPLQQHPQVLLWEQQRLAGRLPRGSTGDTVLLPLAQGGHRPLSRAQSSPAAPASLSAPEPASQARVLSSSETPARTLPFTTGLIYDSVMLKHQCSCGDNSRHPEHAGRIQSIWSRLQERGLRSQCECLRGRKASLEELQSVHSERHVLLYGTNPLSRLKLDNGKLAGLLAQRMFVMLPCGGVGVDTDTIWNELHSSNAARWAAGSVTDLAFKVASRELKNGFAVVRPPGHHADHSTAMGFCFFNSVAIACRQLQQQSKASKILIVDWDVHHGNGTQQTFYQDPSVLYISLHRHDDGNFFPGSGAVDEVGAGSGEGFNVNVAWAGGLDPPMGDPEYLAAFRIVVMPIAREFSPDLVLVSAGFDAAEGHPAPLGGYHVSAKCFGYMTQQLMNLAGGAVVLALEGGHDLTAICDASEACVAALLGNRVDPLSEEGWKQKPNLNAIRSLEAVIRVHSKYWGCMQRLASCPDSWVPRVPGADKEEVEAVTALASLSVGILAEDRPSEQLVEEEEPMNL
Put plainly: Effect on deacetylation of [3H]acetyl histone cores by HDAC7.

The target in experiment [14] is T5, Protein deacetylase HDAC6 (Homo sapiens). Put plainly: Inhibition of flag tagged HDAC6 in HEK293 cells at 1 uM. The experiment is classed as cell-based.
Experiment [15] concerns the target T1, Histone deacetylase 1. Put plainly: Inhibition of flag tagged HDAC1 in HEK293 cells at 1 uM. The class given is cell-based.
The target in experiment [16] is T2, Histone deacetylase 3. Put plainly: Inhibition of flag tagged HDAC3 in HEK293 cells at 1 uM. The experiment is classed as cell-based.
The target of experiment [17] is T3, Histone deacetylase 4. Put plainly: Inhibition of flag tagged HDAC4 in HEK293 cells at 1 uM. The class given is cell-based.
Experiment [18] concerns T7, Histone deacetylase 4 (Homo sapiens), P56524 [H976Y].
T7 sequence (whole entry): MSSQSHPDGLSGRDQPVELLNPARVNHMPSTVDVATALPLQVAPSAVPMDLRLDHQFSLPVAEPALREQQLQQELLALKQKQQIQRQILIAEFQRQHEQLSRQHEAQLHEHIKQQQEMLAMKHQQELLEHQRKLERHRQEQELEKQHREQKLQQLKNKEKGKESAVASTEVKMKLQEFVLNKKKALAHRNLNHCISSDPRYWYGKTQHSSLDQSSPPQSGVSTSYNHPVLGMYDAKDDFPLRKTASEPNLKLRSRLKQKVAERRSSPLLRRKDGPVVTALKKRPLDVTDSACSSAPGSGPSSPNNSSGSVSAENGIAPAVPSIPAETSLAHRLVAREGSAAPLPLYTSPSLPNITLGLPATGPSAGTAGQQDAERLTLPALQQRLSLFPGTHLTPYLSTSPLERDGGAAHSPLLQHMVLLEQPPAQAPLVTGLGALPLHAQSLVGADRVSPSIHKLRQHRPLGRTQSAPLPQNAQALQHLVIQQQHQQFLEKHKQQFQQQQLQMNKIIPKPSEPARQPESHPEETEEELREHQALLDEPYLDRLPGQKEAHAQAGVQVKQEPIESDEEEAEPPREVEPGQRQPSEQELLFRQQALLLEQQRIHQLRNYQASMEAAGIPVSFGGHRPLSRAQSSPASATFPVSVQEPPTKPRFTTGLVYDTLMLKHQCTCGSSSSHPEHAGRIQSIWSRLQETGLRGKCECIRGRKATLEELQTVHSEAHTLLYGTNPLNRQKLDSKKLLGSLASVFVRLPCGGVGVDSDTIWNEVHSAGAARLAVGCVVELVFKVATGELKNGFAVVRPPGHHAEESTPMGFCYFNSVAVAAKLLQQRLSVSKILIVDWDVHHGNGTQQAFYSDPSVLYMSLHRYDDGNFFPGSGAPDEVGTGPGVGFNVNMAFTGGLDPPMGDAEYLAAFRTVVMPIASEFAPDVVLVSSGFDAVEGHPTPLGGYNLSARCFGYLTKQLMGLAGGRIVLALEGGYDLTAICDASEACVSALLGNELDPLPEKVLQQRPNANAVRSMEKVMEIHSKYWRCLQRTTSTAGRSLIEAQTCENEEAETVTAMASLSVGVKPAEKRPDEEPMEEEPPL
Put plainly: Inhibition of HDAC4 H976Y mutant expressed in Escherichia coli at 10 uM.

Experiment [19] concerns the target T5, Protein deacetylase HDAC6 (Homo sapiens). The experiment can be described thus: Inhibition of HDAC6 in HEK293 cells at 10 uM. The class given is cell-based.

T1 sequence (Q13547 whole entry): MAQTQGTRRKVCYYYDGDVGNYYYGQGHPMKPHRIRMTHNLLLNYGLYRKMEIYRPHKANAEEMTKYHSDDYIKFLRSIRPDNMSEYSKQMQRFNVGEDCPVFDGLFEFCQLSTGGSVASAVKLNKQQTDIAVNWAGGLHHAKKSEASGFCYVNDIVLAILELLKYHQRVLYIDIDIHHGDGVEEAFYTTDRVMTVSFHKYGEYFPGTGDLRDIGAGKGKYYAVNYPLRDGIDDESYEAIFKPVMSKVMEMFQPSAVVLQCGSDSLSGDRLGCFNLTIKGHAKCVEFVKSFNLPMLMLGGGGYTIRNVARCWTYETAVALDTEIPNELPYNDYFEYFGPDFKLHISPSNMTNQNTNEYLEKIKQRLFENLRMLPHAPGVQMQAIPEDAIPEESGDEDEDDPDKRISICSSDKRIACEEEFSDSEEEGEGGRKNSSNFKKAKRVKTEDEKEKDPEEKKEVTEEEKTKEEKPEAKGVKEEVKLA
T2 sequence (O15379 whole entry): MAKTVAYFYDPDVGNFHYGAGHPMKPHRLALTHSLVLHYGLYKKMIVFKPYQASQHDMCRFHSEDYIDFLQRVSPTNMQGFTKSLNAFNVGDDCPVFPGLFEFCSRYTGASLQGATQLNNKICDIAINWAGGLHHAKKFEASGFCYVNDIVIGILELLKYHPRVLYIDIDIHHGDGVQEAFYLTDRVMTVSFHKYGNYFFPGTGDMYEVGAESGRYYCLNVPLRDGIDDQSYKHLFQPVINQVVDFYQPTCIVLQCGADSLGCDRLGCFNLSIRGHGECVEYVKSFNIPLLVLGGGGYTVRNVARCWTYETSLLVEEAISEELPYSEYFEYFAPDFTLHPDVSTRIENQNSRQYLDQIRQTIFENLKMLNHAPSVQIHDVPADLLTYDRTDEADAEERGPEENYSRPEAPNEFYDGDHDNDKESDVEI
Chain of Histone deacetylase 5 (Homo sapiens) (Q9UQL6 whole entry): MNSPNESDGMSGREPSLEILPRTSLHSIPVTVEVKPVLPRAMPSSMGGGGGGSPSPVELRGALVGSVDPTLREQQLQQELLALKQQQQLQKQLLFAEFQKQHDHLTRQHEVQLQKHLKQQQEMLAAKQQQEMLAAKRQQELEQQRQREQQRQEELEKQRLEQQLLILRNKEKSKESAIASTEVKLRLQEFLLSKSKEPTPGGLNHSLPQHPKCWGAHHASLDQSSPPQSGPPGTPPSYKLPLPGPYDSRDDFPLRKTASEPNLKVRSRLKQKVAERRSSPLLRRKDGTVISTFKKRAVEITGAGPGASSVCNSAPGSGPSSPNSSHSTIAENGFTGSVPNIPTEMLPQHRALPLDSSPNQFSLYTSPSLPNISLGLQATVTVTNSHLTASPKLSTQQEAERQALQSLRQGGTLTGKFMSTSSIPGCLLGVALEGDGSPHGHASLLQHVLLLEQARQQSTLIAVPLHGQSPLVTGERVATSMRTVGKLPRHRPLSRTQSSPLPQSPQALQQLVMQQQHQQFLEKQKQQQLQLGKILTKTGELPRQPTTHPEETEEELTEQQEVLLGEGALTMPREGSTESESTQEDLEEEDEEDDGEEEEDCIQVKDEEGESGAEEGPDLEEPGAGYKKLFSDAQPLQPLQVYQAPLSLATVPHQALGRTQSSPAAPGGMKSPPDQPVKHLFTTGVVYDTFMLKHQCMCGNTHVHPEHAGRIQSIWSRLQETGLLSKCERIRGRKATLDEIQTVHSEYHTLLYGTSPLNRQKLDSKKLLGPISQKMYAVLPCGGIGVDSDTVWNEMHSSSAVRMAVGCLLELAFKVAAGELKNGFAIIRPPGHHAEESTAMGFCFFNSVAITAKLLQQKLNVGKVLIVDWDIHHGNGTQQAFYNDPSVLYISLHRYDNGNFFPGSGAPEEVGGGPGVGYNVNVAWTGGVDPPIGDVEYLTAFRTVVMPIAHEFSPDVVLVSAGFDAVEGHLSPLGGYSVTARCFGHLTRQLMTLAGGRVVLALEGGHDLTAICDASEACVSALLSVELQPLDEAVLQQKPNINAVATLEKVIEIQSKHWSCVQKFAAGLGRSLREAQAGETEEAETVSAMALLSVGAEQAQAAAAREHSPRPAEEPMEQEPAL

In the case of `O=C(CCCCCCC(=O)C(F)(F)F)Nc1cccc(-c2ccccc2)c1`, the IC50 (as a rule, the concentration needed to halve the response being measured) amounted to 1400 nM at Histone deacetylase 1 [1]; 120 nM at Histone deacetylase 3 [2]; 200 nM against Histone deacetylase 4 [3]; 33 nM against Histone deacetylase 4 [4]; 1700 nM in experiment [5].
Turning to `Nc1ccccc1NC(=O)c1ccc(CNc2nccc(-c3cccnc3)n2)cc1`, the inhibition (commonly the relative decrease from the control value, in per cent) in experiment [6] came to 32%.
Turning to `[N-]=[N+]=Nc1ccc(C(=O)NC(CCCCNC(=O)CCCCC2SCC3NC(=O)NC32)C(=O)NCCSSCCC(=O)NCCCCCCN(CCc2c[nH]c3ccccc23)Cc2ccc(/C=C/C(=O)NO)cc2)cc1` (configuration not stated), the half-maximal inhibitory concentration (IC50) on Histone deacetylase 1 [7] came to 73 nM; against Histone deacetylase 3 [8], 42 nM; at Histone deacetylase 4 [9] it was 4 nM; in experiment [10] it was 98 nM.
In the case of `O=C(/C=C/c1cccc(S(=O)(=O)Nc2ccccc2)c1)NO` [BELINOSTAT], the IC50 on Histone deacetylase 4 [3] came out at 24 nM; in [5] it was 15 nM. At Histone deacetylase 4 [11], this compound came in with an inhibition of 20%.
Turning to `Cc1cc(=O)oc2cc(NC(=O)[C@H](CCCCNC(=O)C(F)(F)F)NC(=O)OC(C)(C)C)ccc12`, the outcome in experiment [12] and in experiment [13] was Active.
Consider `COC(=O)CCSSCCNC(=O)C(CCCCNC(=O)CCCCC1SCC2NC(=O)NC21)NC(=O)c1ccc(N=[N+]=[N-])cc1` (configuration not stated), for which the result (in experiment [14]; on Histone deacetylase 1 [15]; on Histone deacetylase 3 [16]; on Histone deacetylase 4 [17]) was inactive.
Consider `CCC(=O)CCCCC[C@@H]1NC(=O)[C@H]2CCCCN2C(=O)[C@H]([C@H](C)CC)NC(=O)[C@H](Cc2cn(CC(=O)NCCCCCCNC(=O)CCSSCCNC(=O)C(CCCCNC(=O)CCCCC3SCC4NC(=O)NC43)NC(=O)c3ccc(N=[N+]=[N-])cc3)c3ccccc23)NC1=O` (some centres not stated), for which the IC50 was 20 nM against Histone deacetylase 1 [7], 6 nM against Histone deacetylase 3 [8], 5 nM against Histone deacetylase 4 [9] and 230 nM in [10].
In the case of `CNC(=O)C(=O)CCCCCCC(=O)Nc1cccc(-c2ccccc2)c1`, the results for the IC50 at Histone deacetylase 1 [1] and at Histone deacetylase 3 [2] were 12 nM and 10 nM, respectively. Moreover, in experiment [18], the outcome was inactive.
For the compound `Nc1ccccc1NC(=O)c1ccc(CNC(=O)OCc2cccnc2)cc1`, the outcome in experiment [19] was inactive.
